Results taken from patent publication US20080009505A1, “Theanine derivatives, uses thereof and processes for the manufacture thereof” (Conopco Inc. d/b/a UNILEVER, priority 2006, published 2008).
Like-named read-outs stand apart in the source and are kept apart here.

Assay type: physicochemical
Conditions: pH 4; for Remaining: buffer
Protocol: 0.05 M citrate buffer with a pH of 4.0 at 20.3° C. was prepared. To this buffer were added 5.35 mM theanine and 2.675 mM of the theanine dimer. The resulting solution was held at 92° C. for two weeks with small samples being taken regularly for analysis with HPLC.

Remaining (0 h) | Remaining (2.5 h) | Remaining (17.5 h) | Remaining (26.3 h) | Remaining (42 h) | Remaining (50 h) | Remaining (121.3 h) | Remaining (137.3 h) | Remaining (145.8 h) | Remaining (161.6 h) | Remaining (170.2 h) | Remaining (185.8 h) | Remaining (193.3 h) | Stability compared with theanine | SMILES
2.68 mM | 2.75 mM | 2.80 mM | 2.78 mM | 2.99 mM | 3.31 mM | 3.36 mM | 3.38 mM | 3.51 mM | 3.54 mM | 3.59 mM | 3.63 mM | 3.80 mM | much more stable than theanine | CCNC(=O)CCC1NC(=O)C(CCC(=O)NCC)NC1=O (stereo not drawn) [Theanine Dimer, N-ethyl-3-[5-(2-ethylcarbamoyl-ethyl)-3,6-dioxo-piperazin-2-yl]-propionamide]
5.35 mM | 4.83 mM | 2.54 mM | 1.83 mM | 0.81 mM | 0.05 mM | 0.04 mM | 0.03 mM | 0.02 mM | 0.01 mM | 0.01 mM | 0.01 mM | 0.01 mM |  | CCNC(=O)CCC(N)C(=O)O (stereo not drawn) [Theanine, N-gamma-ethyl glutamine]
